Measured values: patent publication US20060264508A1, “Modulation of ocular growth and myopia by gaba drugs” (priority 2001, published 2006)
Values joined by “and” are separate entries in the source; they are usually repeats but may differ in a detail not shown here. Equal values may be shown once. “Also recorded” adds a separate entry of the source.

Key:
[1] = test system: non-goggled eyes; format: in vivo, White leghorn chicks; conditions: non-goggled eyes
Description: Chicks were anesthetized with inhalation ether for all goggle applications and drug injections. The experimental eye was the right eye in half of the chicks, and the left eye in the other half of the chicks, assigned in an alternating order within each group. Form-deprivation myopia was induced by attaching a unilateral translucent white plastic goggle to the periorbital feathers with cyanoacrylate glue. All research conformed with the ARVO Resolution on the Use of Animals in Ophthalmic and Vision Research.
All goggle applications and/or drug injections began when the chicks reached one week of age. At about four hours into the light phase, a 10 μl intravitreal injection of either drug+vehicle or vehicle alone was given under aseptic conditions to the goggled or experimental non-goggled eye, with all contralateral eyes concurrently receiving vehicle injections.
On this day, the animals received no intraocular injections. […] While still under general anesthesia, the chicks were decapitated; and the axial and equatorial dimensions of enucleated eyes were measured with digital calipers. As the coronal profile of the chick eye is elliptical, the equatorial dimension was reported as the mean of the shortest and longest equatorial dimensions.
For goggled chicks, the primary measure of outcome was the drug effect on the ocular response to wearing a goggle, and comparisons of individual doses to each other and to vehicle-treated controls for each drug. Differences in refraction and each size measurement between goggled and contralateral eyes were assessed by one-way analysis of variance (ANOVA). For non-goggled chicks, the primary outcome measure was comparison of drug-treated to contralateral vehicle-treated eyes using a two-way repeated measures ANOVA (one factor replication, using eye as the replicated factor) for refractions and measurements.
The statistical outcomes with the two-way ANOVA are mainly described by the drug-treated to contralateral eye comparison. […] When the ANOVA assumptions of normality or equal variance were not met, the corresponding ANOVA on ranks was used. […] The Figures show the P values when the overall ANOVA reached a significance level of at least P<0.05, and the post-hoc tests for within group comparisons appear in the Tables that follow.

[2] = test system: goggled eyes (form-deprivation myopia); conditions: daily intravitreal injection, result in words
[3] = daily intravitreal dose(s) at which drug-treated differ from contralateral vehicle-treated eyes (P<0.05, Tukey test)
[4] = drug-treated vs contralateral vehicle-treated eyes, result in words

CP(=O)(O)C1=CCNCC1 [TPMPA, (1,2,5,6-tetraliydro-pyridine-4-yl) methyiphosphinic acid]
axial length calipers [1, 3]: 200 & μg and 100 μg
axial length ultrasound [1, 3]: 10 µg
refraction [1, 3]: § (P < 0.05 by ANOVA for overall dose effect, but no significant effect identified for drug-treated vs. contralateral eyes; no specific pairwise comparison identified by the Tukey test.)
vitreous chamber depth (ultrasound) [1, 3]: * (P < 0.05 by ANOVA for drug-treated vs. contralateral eyes, but no specific pair-wise comparison identified by the Tukey test.)
effect on axial growth / axial length and vitreous chamber depth of non-goggled eyes [1, 4]: stimulated both axial growth and vitreous chamber length; also recorded: stimulates axial elongation and vitreous chamber depth
effect on equatorial diameter of non-goggled eyes [1, 4]: reduced the equatorial diameter; also recorded: equatorial dimension actually diminished
effect on refraction of non-goggled eyes [1, 4]: slight myopic refractive shift; also recorded: without altering refraction
effect on axial dimensions (axial length, vitreous chamber depth; ultrasound or calipers) of goggled eyes [2]: blocked the axial and vitreous chamber elongation as measured by ultrasound; also recorded: effects on axial growth as measured by calipers, did not reach statistical significance; also recorded: significantly reduces the axial length of the eye and vitreous chamber depth
effect on equatorial diameter / equatorial expansion of goggled eyes (calipers) [2]: blocked the axial and vitreous chamber elongation as measured by ultrasound, and the equatorial expansion
effect on myopic refraction of goggled eyes [2]: reduced the myopic refraction; also recorded: largely eliminates the myopic refractive shift
overall effect on form-deprivation myopia (refraction and size measurements) of goggled eyes [2]: potent anti-myopia effects
